Assays:
[1] = test system: p53^e7/e7;chk1^MO embryos; experiment: Epistasis analyses in irradiated p53^e7/e7;chk1^MO embryos (live AO assay); type: in vivo; settings: 12.5 Gy
Experimental: To identify such molecules, we performed in vivo epistasis analyses in zebrafish by knocking down or forcing the expression of candidate pathway contributors in p53^e7/e7;chk1^MO embryos.
Morpholino oligonucleotides (MOs) synthesized by Gene Tools™ LLC, were resuspended in sterile water at a concentration of 1 mM and delivered into zebrafish embryos at the one-cell stage by microinjection. The injection apparatus consisted of a heat-pulled, filamentous RNAse free capillary tube positioned by a micromanipulator (Narishige™ M-125), through which the MO was pressure-injected using a nitrogen air supply controlled by a microinjector (Harvard Apparatus™ PLI-100). MOs were delivered into the yolk of embryos at the one cell stage, just below the cytoplasm. For each previously unpublished MO, the working concentration was determined as the highest dose compatible with normal zebrafish development in the p53^e7/e7 background (maximal subtoxic concentration). […] 100 ng of bcl-xl mRNA in vitro transcribed from full-length zebrafish bcl-xl cDNA cloned into pCS2 were injected as described above. All embryos were grown at 28.5° C. in egg water (5 mM NaCl, 0.17 mM KCl, 0.4 mM CaCl2 and 0.16 mM MgSO4). Knockdown efficiencies for the chk1, chk2, atm, atr, p63, casp8 and casp9 MOs at their maximal subtoxic concentrations are shown in FIG. 10. The sequences of the PCR primers used for RT-PCR-based monitoring of MO efficiencies are available upon request.
Live zebrafish embryos were dechorionated in pronase (2.0 mg/mL in egg water) for 3 to 5 min and rinsed five times in egg water at 18 hpf. […] At 24 hpf, embryos were incubated in […] Acridine Orange (AO; Sigma A-6014) in egg water for 30 min at 28.5° C., followed by 3 quick rinses and three 10-min washes in egg water. 5-10 AO-treated embryos were anesthetized in Tricaine ([…]; 3-amino benzoic acid ethylester from Sigma, A-5040) and mounted laterally on a glass slide in warm 0.5% agarose in egg water by streaking a thin layer of the warm agarose across the surface of the slide, and gently pulling the embryos across the agar with a transfer pipette. Lateral images of each zebrafish were acquired on a Zeiss Axioplan2 fluorescence microscope (5× lens), using OpenLab software and a Hammamatsu C4742-95 digital camera. All images were then converted to 8-bit grayscale in NIH ImageJ using the Image>Type>8-bit command. Next, we cropped the images using the Polyonal Selection tool and the Image>Crop functions to include only the trunk of the animal from the head until the beginning of the yolk tube (MO screen; FIG. 1B) or along the entire spinal cord (epistasis analyses; FIGS. 6A & 6D). The area outside of the selected region of interest was cleared using the Edit>Clear Outside command to create a distinct boundary around the area of interest (this is important as it allows the area of interest to be precisely selected after applying the threshold). Next, we split the acquired images into features of interest and background using the Image>Adjust>Threshold function in NIH ImageJ. We then set the maximum threshold of each image to 255 (the lower slide bar in the Threshold window), and adjusted the minimum threshold to the optimized threshold (see below). The threshold was applied using the Black & White display option, with the following Lut options applied; Thresholded pixels to foreground color; Remaining pixels to background color and Black foreground, white background. […] Next, we re-selected the region of interest on the thresholded image, following the bounded image carefully, and analyzed the pixels of the image using the Analyze>Analyze Particles function. The Minimum Size was set to 1px, the Maximum Size was set to the maximum value of 999999 and the Masks option was selected under the Show pull-down menu. The following extended options were also selected: Display Results; Clear Results; Summarize, Size Distribution and Record Starts. […]

p53 mutant embryos = experiment: Live acridine orange (AO) assay of IR-induced cell death in inhibitor-treated p53 mutant embryos; type: in vivo, zebrafish; settings: 12.5 Gy at 18 hpf; Gö6976 1 μM, KU55933 10 μM, Chk2 Inhibitor II 10 μM; 6 hr
Description: (§1) Chk1 inhibitors hold considerable promise in cancer therapy, as they are expected to synergize with genotoxic agents to kill tumor cells lacking functional p53, without affecting normal cells (Kawabe, 2004; Zhou and Bartek, 2004). […] Gö6976 has not been tested in vivo in a vertebrate model system. We therefore evaluated it as well as specific Chk2 and ATM inhibitors in the zebrafish system. Drug toxicity was monitored by scoring the AO reactivity of inhibitor-treated, but non-irradiated, p53^+/+ embryos (left column in FIG. 8A). Unless otherwise indicated, the inhibitors were applied at 18 hpf (that is, immediately before IR) for a total of 6 hours.
Live zebrafish embryos were dechorionated in pronase (2.0 mg/mL in egg water) for 3 to 5 min and rinsed five times in egg water at 18 hpf. Embryos were then γ-irradiated (12.5 Gy) using a ^137Cs-irradiator (Gammacell 1000) at 18 hr post-fertilization (hpf). At 24 hpf, embryos were incubated in […] Acridine Orange (AO; Sigma A-6014) in egg water for 30 min at 28.5° C., followed by 3 quick rinses and three 10-min washes in egg water. 5-10 AO-treated embryos were anesthetized in Tricaine ([…]; 3-amino benzoic acid ethylester from Sigma, A-5040) and mounted laterally on a glass slide in warm 0.5% agarose in egg water by streaking a thin layer of the warm agarose across the surface of the slide, and gently pulling the embryos across the agar with a transfer pipette. Lateral images of each zebrafish were acquired on a Zeiss Axioplan2 fluorescence microscope (5× lens), using OpenLab software and a Hammamatsu C4742-95 digital camera. All images were then converted to 8-bit grayscale in NIH ImageJ using the Image>Type>8-bit command. Next, we cropped the images using the Polyonal Selection tool and the Image>Crop functions to include only the trunk of the animal from the head until the beginning of the yolk tube (MO screen; FIG. 1B) or along the entire spinal cord (epistasis analyses; FIGS. 6A & 6D). The area outside of the selected region of interest was cleared using the Edit>Clear Outside command to create a distinct boundary around the area of interest (this is important as it allows the area of interest to be precisely selected after applying the threshold). Next, we split the acquired images into features of interest and background using the Image>Adjust>Threshold function in NIH ImageJ. We then set the maximum threshold of each image to 255 (the lower slide bar in the Threshold window), and adjusted the minimum threshold to the optimized threshold (see below). The threshold was applied using the Black & White display option, with the following Lut options applied; Thresholded pixels to foreground color; Remaining pixels to background color and Black foreground, white background. […] Next, we re-selected the region of interest on the thresholded image, following the bounded image carefully, and analyzed the pixels of the image using the Analyze>Analyze Particles function. The Minimum Size was set to 1px, the Maximum Size was set to the maximum value of 999999 and the Masks option was selected under the Show pull-down menu. The following extended options were also selected: Display Results; Clear Results; Summarize, Size Distribution and Record Starts. If selected by default, the Exclude on Edges option was deselected. The Area Fraction for each image selection was taken from the Summary window, which is the percentage of pixels in the selection that were black. To ensure valid comparisons of the AO labeling results across all experiments, we quantitatively determined a baseline Area Fraction across a large set of simultaneously irradiated and processed p53^+/+ embryos. […] This analysis yielded a mean value for the total labeled surface area of ˜20% (see FIG. 1B, light gray bar). We included at least 6 p53^+/+ non-injected control embryos in all subsequent AO-labeling experiments. […]

p53^+/+ embryos = experiment: Drug toxicity: AO reactivity and development of inhibitor-treated, non-irradiated p53+/+ embryos; type: in vivo, zebrafish; settings: 0 Gy; Gö6976 1 μM, KU55933 10 μM, Chk2 Inhibitor II 10 μM
Description: as §1
Immediately before IR, 18-hpf embryos were dechorionated and transferred to fresh egg water containing 1% DMSO, with or without the following inhibitors at indicated final concentrations: KU55933 (10 μM; Sigma) (Hickson et al., 2004); Chk2 Inhibitor II (10 μM; Calbiochem) (Arienti et al., 2005); Gö6976 (1 μM; Calbiochem) (Kohn et al., 2003). Unless stated otherwise, embryos were exposed to the inhibitors for 6 hr, transferred to fresh egg water, rinsed five times for 5 min, and labeled with AO. For experiments with Tg(rag2:EGFP-bcl-2) larvae, larvae were incubated in the inhibitor solution at 4 dpf, irradiated at 5 dpf, rinsed at 6 dpf, incubated in fresh inhibitor for an additional 72 hr, and mounted live at 9 dpf for fluorescence microscopic analysis of EGFP expression.

## atm MO: morpholino against zebrafish atm, splice acceptor i55/e56 (SEQ ID NO: 14) (GAAAACGGCACCACCTGGTAAAAAC; antisense; all phosphorodiamidate morpholino (PMO))
[1]
  reduction of the mean p53^e7/e7;chk1^MO AO response: ~60%

## p63 MO: morpholino against zebrafish p63, gt e3/i3 (SEQ ID NO: 28) (antisense AAAGAGTGGCATACCGTCATTGAAC; all phosphorodiamidate morpholino (PMO))
[1]
  effect on IR-induced cell death (AO labeling) of p53^e7/e7;chk1^MO embryos: failed to compromise IR-induced cell death

## NC(=O)c1ccc2nc(-c3ccc(Oc4ccc(Cl)cc4)cc3)[nH]c2c1 [Chk2 Inhibitor II]
p53 mutant embryos
  radiosensitization of p53 mutants (IR-induced AO labeling): only modestly radiosensitized
p53^+/+ embryos
  toxicity of the dose used (AO reactivity of non-irradiated embryos): relatively toxic

## puma MO: morpholino against zebrafish puma, gt e2/i2 (SEQ ID NO: 27) (antisense AACCAAGCATGACTCTTACCCTCTG; all phosphorodiamidate morpholino (PMO))
[1]
  effect on IR-induced cell death (AO labeling) of p53^e7/e7;chk1^MO embryos: did not significantly affect AO labeling

## fadd MO: morpholino against zebrafish FADD, gt e3/i3 (SEQ ID NO: 30) (antisense TAACGTTACCAACCTCGCTCTTTCG; all phosphorodiamidate morpholino (PMO))
[1]
  effect on IR-induced cell death (AO labeling) of p53^e7/e7;chk1^MO embryos: failed to affect AO staining

## casp2 MO2: second casp2 morpholino, gt e3/i3 (SEQ ID NO: 23) (antisense ACCATACTAAAGTACCAACCATGAG; all phosphorodiamidate morpholino (PMO))
[1]
  effect on IR-induced cell death (AO labeling) of p53^e7/e7;chk1^MO embryos: significantly reduced IR-induced death

## p73 MO: morpholino against zebrafish TAp73 atg/5'UTR (SEQ ID NO: 29) (antisense GGATGTTGGACAATCCACCGCAGGG; all phosphorodiamidate morpholino (PMO))
[1]
  effect on IR-induced cell death (AO labeling) of p53^e7/e7;chk1^MO embryos: failed to compromise IR-induced cell death

## casp2 MO1: morpholino targeting the splice donor site of intron 4 of zebrafish casp2 (SEQ ID NO: 22) (CGCTGAAACCCTGTTGTACCTGTGG; all phosphorodiamidate morpholino (PMO))
[1]; 7.5 hpIR
  AO labeling, of the mean p53^e7/e7;chk1^MO response: 16%
[1]; three separate experiments
  mean decrease in AO labeling compared with p53^e7/e7;chk1^MO embryos: 6 fold

## O=c1cc(-c2cccc3c2Sc2ccccc2S3)oc(N2CCOCC2)c1 [KU55933]
p53 mutant embryos
  radiosensitization of p53 mutants (IR-induced AO labeling): only modestly radiosensitized
p53^+/+ embryos
  toxicity of the dose used (AO reactivity of non-irradiated embryos): relatively toxic

## mismatch version of casp2 MO1: 5 base-pair mismatch casp2 morpholino (SEQ ID NO: 24) (antisense CGGTGAAAGCCTCTTCTACCTCTGG; all phosphorodiamidate morpholino (PMO))
[1]
  effect on IR-induced cell death (AO labeling) of p53^e7/e7;chk1^MO embryos: had no effect

## casp8 MO: morpholino against zebrafish casp8 splice donor site (SEQ ID NO: 25) (antisense ACAGGGTTTTAACTCACAGTAGATC; all phosphorodiamidate morpholino (PMO))
[1]
  effect on IR-induced cell death (AO labeling) of p53^e7/e7;chk1^MO embryos: did not differ

From patent US9000027B2, “Chk1 suppresses a caspase-2 apoptotic response to DNA damage that bypasses p53, bcl-2 and caspase-3” (Dana-Farber Cancer Institute, Inc., priority 2008, dated 2015)
